Measurements from patent US20240066045A1, “SEMICARBAZONE-BASED SAPONIN CONJUGATE” (priority 2020, published 2024).
Like-named read-outs stand apart in the source and are kept apart here.

Assays:
[1] = tested on: apoB RNA in primary human hepatocytes; assay: apoB RNA expression analysis (qRT-PCR) after 72 hr treatment; format: cell-based; conditions: read-out: IC50 apoB RNA levels
Method: RNA from cells was isolated using TRI Reagent® Solution (Thermo Scientific) according to the manufacturer's instruction. Conversion into cDNA was performed using iScript™ cDNA Synthesis Kit (BioRad) using standard protocols. ApoB expression levels and levels of specific hepatocyte housekeeping genes were determined using quantitative real-time PCR assays (qRT-PCR) using iTaq™ Universal SYBR® Green Supermix (BioRad) and the Light Cycler 480 (Roche Diagnostics, Rotkreuz, Switzerland) with specific DNA primers, listed in Table A4. Analysis was done by the ΔCt method to determine ApoB expression relative to 2 hepatocyte-specific housekeeping control mRNAs. Each analysis reaction was performed in triplicate.
Covalent binding of the saponin to the GalNAc/oligonucleotide conjugate via a semicarbazone bond thus results in increased efficacy when relative apoB RNA levels are considered and compared with levels measured in cells which were contacted with a conjugate comprising saponin linked via a hydrazone bond to the GalNAc/oligonucleotide conjugate. Without wishing to be bound by any theory, improved efficacy of the release of free saponin from the conjugate, when the conjugate is transferred into the endosome, is at the basis for the improved potency of the oligonucleotide, as obtained with the conjugate comprising saponin bound via semicarbazone. […]

apoB RNA in liver tissue = assay: In vivo efficacy: apoB RNA in liver tissue (qRT-PCR); parameters: species or system C57BL/6J mice; conditions: for reduction of liver apoB RNA compared to vehicle: study A
Method: (§1) In Vivo Tolerability and Efficacy of Trivalent GalNAc-Conjugates in a C57BL/6J Model • Dose administration and in-life phase. Per group, 8 C57BL/6J male mice for treatment groups (in study A, 14 mice in vehicle control group), approximately 6-7 weeks at arrival and 8-9 weeks at dosing, were dosed. The compounds, formulated in PBS or PBS alone (vehicle) according to Table A5 and Table A6, were dosed at 5 ml/kg in the tail vain (intravenously, iv), with dose volumes corresponding to the individual bodyweights. Where applicable, trivalent (GalNAc)3-SO1861 (EMCH) was co-administered at 5 ml/kg in the tail vain (iv) right after the trivalent GalNAc-ApoB conjugate. Animals were weighed weekly and clinical observations were performed 2-3 times daily within the first 48 hrs, and at least once daily thereafter until study end. • Sampling of serum, liver, and kidney tissue. […] At the relevant inter-study post-dose timepoints, 3 animals per timepoint per treatment group (6 animals in the vehicle control group in study A) were sacrificed to collect terminal bleeds and collect relevant organs, such as liver and kidney tissues for further analyses. at end of study, the remaining 2 animals (4 in the control group in study A) per group were sacrificed. One half of the liver and one kidney was frozen and used for tissue RNA analysis.
The mRNA was isolated from frozen liver tissue using TRizol® Reagent (Thermo Scientific) according to the manufacturer's instruction. Conversion into cDNA was performed using iScript™ cDNA Synthesis Kit (BioRad). ApoB expression levels and levels of specific liver housekeeping genes were determined using quantitative real-time PCR assays (qRT-PCR) using iTaq™ Universal SYBR® Green Supermix (BioRad) and the Light Cycler 480 (Roche Diagnostics, Rotkreuz, Switzerland) with specific DNA primers, listed in Table A4 (study A) and Table A7 (study B), respectively. Analysis was done by the ΔCt method to determine ApoB expression relative to 2 liver-specific housekeeping control mRNAs. Each analysis reaction was performed in triplicate.

apoB protein in serum = assay: In vivo efficacy: serum apoB protein (ELISA); parameters: species or system C57BL/6J mice; conditions: study B; 2 mg/kg; 72 hrs post-dose
Method: as §1, with “[…] […]” for “The compounds, formulated in PBS or PBS alone (vehicle) according to Table A5 and Table A6, were dosed at 5 ml/kg in the tail vain (intravenously, iv), with dose volumes corresponding to the individual bodyweights. Where applicable, trivalent (GalNAc)3-SO1861 (EMCH) was co-administered at 5 ml/kg in the tail vain (iv) right after the trivalent GalNAc-ApoB conjugate.”
ApoB protein levels in mouse serum was determined using an ApoB ELISA (ab230932, Abcam, Cambridge, UK), according to the manufacturer's instruction.

[2] = tested on: serum LDL-cholesterol (LDL-C); assay: In vivo efficacy: serum LDL-cholesterol; parameters: species or system C57BL/6J mice
Method: as §1
LDL-cholesterol was measured in mouse serum, using an LDL-cholesterol specific two-step AU480 assay kit, respectively, from Beckman Coulter, with a photometric measurement according to the manufacturer's instructions.

[3] = In vivo tolerability: clinical observations, body weight, serum ALT; parameters: species or system C57BL/6J mice; conditions: study A; doses and dose regimens of Table A5, iv
Method: In Vivo Tolerability and Efficacy of Trivalent GalNAc-Conjugates in a C57BL/6J Model • Dose administration and in-life phase. Per group, 8 C57BL/6J male mice for treatment groups (in study A, 14 mice in vehicle control group), approximately 6-7 weeks at arrival and 8-9 weeks at dosing, were dosed. The compounds, formulated in PBS or PBS alone (vehicle) according to Table A5 and Table A6, were dosed at 5 ml/kg in the tail vain (intravenously, iv), with dose volumes corresponding to the individual bodyweights. Where applicable, trivalent (GalNAc)3-SO1861 (EMCH) was co-administered at 5 ml/kg in the tail vain (iv) right after the trivalent GalNAc-ApoB conjugate. Animals were weighed weekly and clinical observations were performed 2-3 times daily within the first 48 hrs, and at least once daily thereafter until study end. • Sampling of serum, liver, and kidney tissue. […]
Serum alanine transaminase (ALT) levels was measured using an AU480 assay kit from Beckman Coulter (photometric measurements), according to the manufacturer's instructions.

In the case of “5′-GCattggtatTCA-3′ (GCATTGGTATTCA; listed as DNA, chemistry not fully specified) [ApoB #02 BNA]”, the IC50 ([1]; relative ApoB #02 BNA concentration, no transfection agent (FIG. 19A)) is reported as 400 nM, the IC50 ([1]; transfection with RNAi-MAX) is reported as 8 nM and the “reduction of liver apoB RNA compared to vehicle” value (shortened to “reduction of liver apoB RNA”) (apoB RNA in liver tissue; 0.1 mg/kg iv, 24 hrs) is reported as “not noticeably reduced”. The “reduction of liver apoB RNA” value (apoB RNA in liver tissue; 1 mg/kg iv, 24 hrs) was ~15%, the “reduction of liver apoB RNA” value (apoB RNA in liver tissue; 2 mg/kg iv, 24 hrs) was ~21% and the “reduction of liver apoB RNA” value (apoB RNA in liver tissue; 2 mg/kg iv, 72 hrs) was 39%. The “reduction of liver apoB RNA” value (apoB RNA in liver tissue; 2 mg/kg iv, 336 hrs) was 30%, the “liver apoB RNA levels, % of vehicle control” value (apoB RNA in liver tissue; study B, 2 mg/kg, 72 hrs) was 53% and the “serum apoB protein” value (apoB protein in serum) was 57 µg/mL. The “reduction of serum LDL-C compared to vehicle” value ([2]; study A, 2 mg/kg, 72 hrs) was “ca. 50%”, the “reduction of serum LDL-C compared to vehicle” value ([2]; study A, 2 mg/kg, 336 hrs) was “ca. 40%” and the “serum LDL-C levels compared to vehicle” value ([2]; study A, 0.1, 1, or 2 mg/kg, 24 hrs) was “not noticeably reduced”. The “serum LDL-C” value ([2]; study B, 2 mg/kg, 72 hrs post-dose) was 2 mg/dL and the “tolerability (clinical observations)” value [3] was “well tolerated”.
